We go through 13 compounds from ChEMBL document CHEMBL1201862, “PubChem BioAssay data set” (2004).

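The compound was tested at five concentrations on cells cultured in 96-well plates, with a 48-hour exposure period. GI50 marks 50% less growth.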 Calls of active or inactive are those of the source. Rule as the data show it: active = GI50 up to about 1.1 µM and inactive = higher.

Test in all cases: growth of human tumour cells (NCI), 48 h
The subject of assay [1] is OVCAR-4.
The subject of assay [2] is HOP-62.
Assay [3] has as its system SN12C.
Assay [4] relates to MOLT-4.
For assay [5], the system named is SNB-75.
The test system of assay [6] is NCI-H522.
Assay [7] has as its system K562.
The test system of assay [8] is CAKI-1.
For assay [9], the system named is HCC 2998.
Assay [10] has as its system COLO 205.
Assay [11] concerns A498.
Assay [12] deals with CCRF-CEM.
Assay [13] relates to SF-539.
Assay [14] has as its system DMS-114.
The subject of assay [15] is NCI-H226.
Assay [16] relates to ACHN.
In assay [17] the test system is MDA-N.
The subject of assay [18] is MDA-MB-435.
Assay [19] relates to PC-3.
Assay [20] has as its system MDA-MB-231.

Turning to `CCCCCCCC(=O)NCC(O)CNC(=O)CCCCCCC`, the GI50 in assay [1], in assay [2], in [3], in assay [4], in assay [5] and in assay [6] was > 100 µM (inactive) in each case. The GI50 in assay [7] was > 100 µM (inactive); in [8] it was > 100 µM (inactive); in [9], > 100 µM (inactive); in assay [10], > 100 µM (inactive); in assay [11], > 100 µM (inactive); in assay [12], 88.1 µM (inactive). The GI50 in assay [13], in assay [14] and in [15] was > 100 µM (inactive) each time.
For the compound `CCOC(=O)NC(=O)c1cn(CCN2CCN(C(=O)NCCCCCCNC(=O)N3CCN(CCn4cc(C(=O)NC(=O)OCC)c(=O)[nH]c4=O)CC3)CC2)c(=O)[nH]c1=O`, the GI50 in assay [1], in [2], in assay [3], in assay [5], in assay [6] and in [16] was > 100 µM (inactive) each time. The GI50 in assay [7], in [9], in assay [10], in assay [11], in assay [13] and in assay [14] was > 100 µM (inactive) each time.
Take `CC(Oc1cc2oc(=O)cc(-c3ccccc3)c2cc1Cl)C(=O)O` (stereo unspecified): the GI50 in assay [1], in assay [2], in [3], in assay [4], in assay [5] and in assay [6] was > 100 µM (inactive) throughout. Further, the GI50 in [16], in [7], in assay [8], in assay [9], in assay [10] and in [11] was > 100 µM (inactive) in each case. For the same compound, the GI50 in assay [12], in assay [13], in assay [14] and in assay [15] was > 100 µM (inactive) throughout.
On to `COc1ccc(NS(=O)(=O)c2ccc(/N=C3\C=C(Nc4ccc(S(=O)(=O)Nc5ccc(OC)nn5)cc4)C(=O)c4ccccc43)cc2)nn1`, for which the GI50 in [1] was 18.3 µM (inactive); in assay [3], 18.1 µM (inactive); in assay [4], 87.9 µM (inactive); in assay [5], 19.8 µM (inactive); in [6] it was 17 µM (inactive); in assay [16] it was 19.1 µM (inactive). For the same compound, the GI50 in assay [7] is 61.1 µM (inactive); in [8], 22 µM (inactive); in assay [9] it was 19.6 µM (inactive); in assay [10], 17.7 µM (inactive); in assay [11], 15.3 µM (inactive); in [12] it was > 100 µM (inactive). For the same compound, the results for the GI50 in assay [13], in assay [14] and in [15] were 17.7 µM (inactive), 26.5 µM (inactive) and 19.3 µM (inactive), respectively.
For the compound `CCN(CC)CC(C(=O)Nc1c(C)cccc1C)/C(C)=N/NC(N)=S` (stereo unspecified), the GI50 in [2], in assay [4], in [5], in assay [6], in assay [16] and in [7] was > 100 µM (inactive) throughout. For the same compound, the GI50 in [9], in assay [10], in assay [11], in assay [12], in [13] and in assay [14] was > 100 µM (inactive) in each case. For the same compound, in assay [15], the GI50 was > 100 µM (inactive).
`CC[C@](O)(C(=O)O)c1cc2n(c(=O)c1CO)Cc1cc3ccccc3nc1-2`: the GI50 was 0.214 µM (active) in [1]; 0.0025 µM (active) in [2]; 0.025 µM (active) in assay [3]; 0.0257 µM (active) in assay [4]; 0.0333 µM (active) in assay [5]; 0.0306 µM (active) in assay [6]. The GI50 in [16] was 0.0025 µM (active); in assay [17] it was 0.0373 µM (active); in assay [8], 0.025 µM (active); in assay [9], 0.324 µM (active); in assay [18], 0.0532 µM (active); in assay [10], 0.234 µM (active). Besides, the GI50 in assay [11] was 0.0398 µM (active); in assay [12], 0.025 µM (active); in assay [19], 0.131 µM (active); in assay [20], 0.665 µM (active); in assay [13] it was 0.0697 µM (active); in assay [14], 0.025 µM (active).
As to `C/C=C(/I)CBr`, the GI50 in [1] is 17.3 µM (inactive); in [2] it was 22.5 µM (inactive); in assay [3], 17.2 µM (inactive); in assay [4] it was 15.9 µM (inactive); in assay [5], > 10 µM (inactive); in assay [6], 2.03 µM (inactive). In addition, the GI50 is 21.8 µM (inactive) in [16]; 5.15 µM (inactive) in assay [7]; 1.07 µM (active) in assay [8]; 15.9 µM (inactive) in assay [9]; 13.2 µM (inactive) in [10]; > 10 µM (inactive) in [11]. Besides, the GI50 in assay [12] was 3.78 µM (inactive); in assay [13] it was 17 µM (inactive); in assay [14], 12.6 µM (inactive); in assay [15], 20.6 µM (inactive).
For the compound `Nc1nc(N)c(N=O)c(Nc2ccc(Br)cc2)n1`, the GI50 in assay [1] was 48 µM (inactive); in assay [2], 14.6 µM (inactive); in assay [3], 17.8 µM (inactive); in assay [5], 10.4 µM (inactive); in assay [6], 17.9 µM (inactive); in [16], 6.58 µM (inactive). The GI50 was > 100 µM (inactive) in assay [7]; 29.4 µM (inactive) in assay [8]; 78.9 µM (inactive) in assay [9]; 19.9 µM (inactive) in assay [10]; 17.6 µM (inactive) in assay [11]; 18.2 µM (inactive) in assay [12]. The GI50 in [13] is 16.9 µM (inactive); in assay [14], 21.8 µM (inactive); in assay [15], 32.2 µM (inactive).
In the case of `C=CCOC(C)n1c(C)cc(=O)n(C(C)OCC=C)c1=O` (stereo unspecified), the GI50 in assay [1], in assay [2], in [3], in [4], in assay [5] and in assay [6] was > 100 µM (inactive) in each case. In addition, the GI50 in assay [16], in assay [7], in assay [9], in assay [10], in assay [11] and in assay [12] was > 100 µM (inactive) each time. Besides, the GI50 in assay [13], in assay [14] and in [15] was > 100 µM (inactive) each time.
For the compound `CS/C(=N\C(=S)Nc1ccccc1)Nc1ccccc1`, the GI50 in [1] was 26.3 µM (inactive); in [2] it was 27.9 µM (inactive); in assay [3] it was 18.3 µM (inactive); in assay [4], 12.9 µM (inactive); in assay [5], 16.3 µM (inactive); in assay [6], 14.6 µM (inactive). Further, the GI50 is 17.5 µM (inactive) in assay [16]; 12.6 µM (inactive) in assay [7]; 14.6 µM (inactive) in assay [8]; 21.7 µM (inactive) in assay [9]; 23.8 µM (inactive) in [10]; 21.9 µM (inactive) in assay [11]. In addition, the values for the GI50 in assay [13], in assay [14] and in assay [15] were > 10 µM (inactive), 0.743 µM (active) and 18.5 µM (inactive), respectively.
As for `Cc1cc2c(cc1C)[n+]([O-])c(-c1c(Cl)cccc1Cl)c(N)[n+]2[O-]`, the GI50 in assay [1] is 39 µM (inactive); in assay [2], 30.5 µM (inactive); in [3] it was 50.9 µM (inactive); in [4], 26.2 µM (inactive); in assay [5] it was > 100 µM (inactive); in assay [6], 9.27 µM (inactive). For the same compound, the GI50 in [16] is 36.5 µM (inactive); in [7], 32 µM (inactive); in [8] it was 31 µM (inactive); in [9], 25.8 µM (inactive); in [10], 18.7 µM (inactive); in assay [11], 26.2 µM (inactive). For the same compound, the GI50 in assay [13] is 27.9 µM (inactive); in [14], 22.6 µM (inactive); in assay [15] it was 23.9 µM (inactive).
As for `Cc1ccc(C)c(N2C(=O)C(=O)C(c3nc4ccccc4o3)/C(=N/N)C2=O)c1` (stereo unspecified), the GI50 in assay [1] was > 100 µM (inactive); in assay [2] it was > 100 µM (inactive); in assay [3] it was > 100 µM (inactive); in assay [4], > 100 µM (inactive); in assay [5], 95.7 µM (inactive); in assay [6], > 100 µM (inactive). For the same compound, the GI50 in assay [16], in assay [8], in [9], in [10], in [11] and in assay [12] was > 100 µM (inactive) throughout. For the same compound, the GI50 in assay [13], in [14] and in assay [15] was > 100 µM (inactive) throughout.
`CC1NOC(=O)C1/N=N/c1cccc(Cl)c1` (stereo unspecified): the GI50 in [1] is 32.9 µM (inactive); in assay [2] it was 51.3 µM (inactive); in assay [3], 21.7 µM (inactive); in [4], 24.5 µM (inactive); in assay [5], 36.1 µM (inactive); in assay [6] it was 23.5 µM (inactive). Also, the GI50 in assay [16] was 40.9 µM (inactive); in [7], 25.6 µM (inactive); in assay [8], 38.6 µM (inactive); in [9], > 100 µM (inactive); in assay [10] it was 20.5 µM (inactive); in [11], 17.3 µM (inactive). Also, the GI50 is 21.4 µM (inactive) in assay [12], 34.3 µM (inactive) in assay [13], 22.4 µM (inactive) in [14] and 32.3 µM (inactive) in assay [15].
